Publication PMC9774391 (ACS Omega, 2022)

What was measured:
[1] = Cytotoxicity test (MTT); assay type: cell-based; conditions: NIH/3T3 mouse embryonic fibroblast cells (ATCC CRL-1658), NIH/3T3 mouse fibroblast healthy cell line
Protocol: The NIH/3T3 cells were incubated according to the manufacturer’s recommendations. In 96-well plates, NIH/3T3 cells were seeded at a density of 1 × 10^4 cells per well. The MTT test was conducted in line with the previously mentioned standards.[19],[22],[23],[28],[30]

[2] = target: T1, BChE (Homo sapiens, UniProt P06276); assay: biochemical; conditions: for inhibition at 1000 µM: 10^–3 M; for inhibition at 100 µM: 10^–4 M; for inhibition at 10 µM: 10^–5 M; for inhibition at 1 µM: 10^–6 M; for inhibition at 0.1 µM: 10^–7 M; for inhibition at 0.01 µM: 10^–8 M; for inhibition at 0.001 µM: 10^–9 M
Protocol: (§1) According to the modified Ellman approach outlined in our team’s earlier work, the AChE and BChE inhibitory activities of the obtained compounds were evaluated.[18]−[21]

[3] = target: AChE (Homo sapiens, UniProt P22303); assay: biochemical; conditions: for inhibition at 1000 µM: 10^–3 M; for inhibition at 100 µM: 10^–4 M; for inhibition at 10 µM: 10^–5 M; for inhibition at 1 µM: 10^–6 M; for inhibition at 0.1 µM: 10^–7 M; for inhibition at 0.01 µM: 10^–8 M; for inhibition at 0.001 µM: 10^–9 M
Protocol: as §1

[4] = target: T2, Beta Amyloid 1–42 (Aβ42) (Homo sapiens, UniProt P05067); assay: Beta Amyloid 1–42 (Aβ42) inhibitor screening assay; assay type: biochemical; conditions: for inhibition at 100 µM: 10^–4 M
T2 construct: The Beta Amyloid 1–42 (Aβ42) Ligand Screening Assay kit; purchased BioVision, Milpitas, CA
Excerpt: The Beta Amyloid 1–42 (Aβ42) Ligand Screening Assay kit (BioVision, Milpitas, CA) technique based on the fluorometric approach served as the basis for the experimental process.[21],[28],[29]

[5] = target: T3, MAO-B (Homo sapiens, UniProt P27338); assay: Enzyme kinetics on MAO-B (Lineweaver–Burk); assay type: biochemical
T3 sequence (P27338 1-520): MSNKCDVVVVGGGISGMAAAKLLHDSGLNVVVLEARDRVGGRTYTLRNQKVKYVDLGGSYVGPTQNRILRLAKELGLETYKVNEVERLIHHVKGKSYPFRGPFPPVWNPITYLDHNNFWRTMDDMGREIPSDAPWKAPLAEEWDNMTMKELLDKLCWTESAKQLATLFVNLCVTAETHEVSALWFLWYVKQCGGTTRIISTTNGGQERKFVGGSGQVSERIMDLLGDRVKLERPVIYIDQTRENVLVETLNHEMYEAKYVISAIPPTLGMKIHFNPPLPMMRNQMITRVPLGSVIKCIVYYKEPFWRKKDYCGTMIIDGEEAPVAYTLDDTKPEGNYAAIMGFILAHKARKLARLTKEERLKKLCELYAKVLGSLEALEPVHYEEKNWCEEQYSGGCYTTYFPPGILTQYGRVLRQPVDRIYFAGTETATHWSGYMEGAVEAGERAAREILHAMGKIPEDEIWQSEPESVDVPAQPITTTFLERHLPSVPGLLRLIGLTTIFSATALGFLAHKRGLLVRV
Protocol: (§2) The experimental procedures used in the kinetic investigations were identical to those used in the inhibition experiments. […]. Acetylthiocholine iodide (ATC) and butyrylthiocholine iodide (BTC) solutions were utilized as the substrates for the ChE enzymes, with serial dilutions at six different concentrations (600, 300, 150, 75, 37.5, and 18.75 μM). The tyramine substrate solution (concentrations ranging from 20 to 0.625 μM) was produced for the MAO enzymes at six different concentrations. Separate measurements were conducted both with and without an inhibitor. Using the Microsoft Office Excel 2013 program, the resulting absorbance values were compared to various substrate concentrations, and Lineweaver–Burk plots were created.[19]−[22]
(§3) The absorbance data from the experiments and the substrate concentrations were used to generate Lineweaver–Burk plots. The graphic’s x-axis stands for 1/[S] […] […]. The intersection of these four lines on the diagram was used to define the type of substrate and inhibitor reaction against the enzyme.
(§4) Reversible and irreversible inhibition of enzymes are the two categories that inhibition is commonly subdivided into. In irreversible inhibition, the inhibitor either creates a recalcitrant complex structure or establishes a covalent bond with the enzyme. […]

[6] = DPPH free-radical scavenging activity assay; conditions: serial dilution 10^–3–10^–9 M; read-out: IC50 on DPPH antioxidant activity
Protocol: This approach is based on evaluating the free-radical scavenging abilities of the stable 1,1-diphenyl-2-picrylhydrazyl (DPPH) radical. To create the DPHH solution, 9.86 mg of DPPH was weighed and diluted to 25 mL with methanol. The test wells were then filled with 100 μL of the DPPH solution and 100 μL of the test solutions. Only 200 μL of methanol was used for the blank reading, while the control reading required the usage of 100 μL each of methanol and the DPPH solution. Following incubation, a spectrophotometric measurement at 517 nm was carried out.[26],[27]

[7] = target: T3, MAO-B; assay: In vitro MAO-B inhibition assay (fluorometric); assay type: biochemical; conditions: for inhibition at 1000 µM: 10^–3 M; for inhibition at 100 µM: 10^–4 M; for inhibition at 10 µM: 10^–5 M; for inhibition at 1 µM: 10^–6 M; for inhibition at 0.1 µM: 10^–7 M; for inhibition at 0.01 µM: 10^–8 M; for inhibition at 0.001 µM: 10^–9 M
[8] = target: T4, MAO-A (Homo sapiens, UniProt P21397); assay: In vitro MAO-A inhibition assay (fluorometric); assay type: biochemical; conditions: for inhibition at 1000 µM: 10^–3 M; for inhibition at 100 µM: 10^–4 M
T4 sequence (P21397 1-527): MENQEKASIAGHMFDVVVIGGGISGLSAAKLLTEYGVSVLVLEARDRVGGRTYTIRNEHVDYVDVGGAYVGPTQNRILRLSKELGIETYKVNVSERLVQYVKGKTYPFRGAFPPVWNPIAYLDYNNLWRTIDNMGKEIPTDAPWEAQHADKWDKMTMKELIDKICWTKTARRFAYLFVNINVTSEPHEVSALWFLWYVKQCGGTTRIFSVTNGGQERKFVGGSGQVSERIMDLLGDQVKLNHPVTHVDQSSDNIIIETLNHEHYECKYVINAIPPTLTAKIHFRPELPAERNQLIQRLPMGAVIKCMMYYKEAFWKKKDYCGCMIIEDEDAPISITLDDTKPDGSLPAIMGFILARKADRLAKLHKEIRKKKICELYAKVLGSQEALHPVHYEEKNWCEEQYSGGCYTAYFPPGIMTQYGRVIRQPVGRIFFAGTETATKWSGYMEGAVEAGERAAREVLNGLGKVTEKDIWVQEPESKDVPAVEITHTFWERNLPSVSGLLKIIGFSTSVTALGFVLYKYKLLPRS

[9] = target: T1, BChE; assay: Enzyme kinetics on BChE (Lineweaver–Burk); assay type: biochemical
Protocol: as §2, §3, §4

[10] = read-out: % β-amyloid plaque inhibition

T1 sequence (P06276 29-602): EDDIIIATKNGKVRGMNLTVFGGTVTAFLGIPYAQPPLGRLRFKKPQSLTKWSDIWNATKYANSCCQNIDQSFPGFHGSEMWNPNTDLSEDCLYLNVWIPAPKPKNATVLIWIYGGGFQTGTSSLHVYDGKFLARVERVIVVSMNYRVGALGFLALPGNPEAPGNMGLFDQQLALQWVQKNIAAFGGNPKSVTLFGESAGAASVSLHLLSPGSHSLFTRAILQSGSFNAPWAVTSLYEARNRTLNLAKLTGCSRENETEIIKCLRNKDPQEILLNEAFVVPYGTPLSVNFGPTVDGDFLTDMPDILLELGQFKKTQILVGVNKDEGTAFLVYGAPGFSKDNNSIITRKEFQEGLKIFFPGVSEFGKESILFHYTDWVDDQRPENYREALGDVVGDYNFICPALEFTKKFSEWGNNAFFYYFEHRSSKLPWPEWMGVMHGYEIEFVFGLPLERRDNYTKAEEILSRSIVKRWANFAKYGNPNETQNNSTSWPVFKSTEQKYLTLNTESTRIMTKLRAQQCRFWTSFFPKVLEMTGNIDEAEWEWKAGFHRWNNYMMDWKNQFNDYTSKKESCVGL
AChE, sequence (P22303 32-614): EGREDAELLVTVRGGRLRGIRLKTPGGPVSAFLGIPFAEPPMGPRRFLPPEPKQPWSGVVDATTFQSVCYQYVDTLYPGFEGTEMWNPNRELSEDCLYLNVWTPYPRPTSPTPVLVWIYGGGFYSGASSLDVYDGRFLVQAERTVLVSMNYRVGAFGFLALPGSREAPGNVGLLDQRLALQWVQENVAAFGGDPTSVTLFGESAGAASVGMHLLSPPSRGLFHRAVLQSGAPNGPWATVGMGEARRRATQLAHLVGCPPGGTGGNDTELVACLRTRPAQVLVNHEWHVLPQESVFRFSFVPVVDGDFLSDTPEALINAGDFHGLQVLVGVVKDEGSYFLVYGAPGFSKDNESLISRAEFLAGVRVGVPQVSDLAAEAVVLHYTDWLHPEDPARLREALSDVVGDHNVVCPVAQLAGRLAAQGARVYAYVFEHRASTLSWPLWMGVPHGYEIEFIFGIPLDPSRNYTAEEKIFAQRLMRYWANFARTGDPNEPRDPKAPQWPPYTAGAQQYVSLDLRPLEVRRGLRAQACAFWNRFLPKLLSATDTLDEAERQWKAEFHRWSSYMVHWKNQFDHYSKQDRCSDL
T2 sequence (P05067 672-713 limits assumed): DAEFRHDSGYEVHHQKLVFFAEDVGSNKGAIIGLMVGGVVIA

Row | SMILES | IC50 [1] [nM] | IC50 [2] [nM] | inhibition at 1000 µM [2] [%] | inhibition at 100 µM [2] [%] | inhibition at 10 µM [2] [%] | inhibition at 1 µM [2] [%] | inhibition at 0.1 µM [2] [%] | inhibition at 0.01 µM [2] [%] | inhibition at 0.001 µM [2] [%] | IC50 [3] [nM] | inhibition at 1000 µM [3] [%] | inhibition at 100 µM [3] [%] | inhibition at 10 µM [3] [%] | inhibition at 1 µM [3] [%] | inhibition at 0.1 µM [3] [%] | inhibition at 0.01 µM [3] [%] | inhibition at 0.001 µM [3] [%] | inhibition at 100 µM [4, 10] [%] | IC50 [7] [nM] | inhibition at 1000 µM [7] [%] | also measured
1 | COc1ccc2c(c1)C/C(=C\c1ccc(NC(=O)CN(C)CCCN(C)C)cc1)C2=O [D37] | 2290 ± 136 | 83.9 ± 3.4 | 94.2 ± 1.39 | 89.7 ± 1.25 | 82.7 ± 1.01 | 71.4 ± 1.35 | 59.3 ± 0.754 | 32.5 ± 0.355 | 18.5 ± 0.471 | 48.2 ± 1.7 | 92.5 ± 1.57 | 87.6 ± 1.68 | 83.5 ± 1.23 | 75.1 ± 1.08 | 61.5 ± 0.965 | 39.5 ± 0.489 | 19.7 ± 0.508 | > 50 | 31.2 ± 0.8 | 98.4 ± 1.63 | type of inhibition of MAO-B ([5]; Lineweaver–Burk plots): noncompetitive inhibition; Ki ([5]; secondary plot of Lineweaver–Burk data, read-out: steady-state inhibition constant (Ki), MAO-B): 29.7 nM; IC50 [6]: 179 ± 7 nM; inhibition at 100 µM [7]: 91.6 ± 1.24%; inhibition at 10 µM [7]: 85.5 ± 1.12%; inhibition at 1 µM [7]: 78.3 ± 1.07%; inhibition at 0.1 µM [7]: 72.2 ± 1.1%; inhibition at 0.01 µM [7]: 40.1 ± 0.561%; inhibition at 0.001 µM [7]: 18.2 ± 0.418%; inhibition at 1000 µM [8]: 96.51 ± 0.736%; inhibition at 100 µM [8]: 37.8 ± 0.96%
2 | COc1cc2c(cc1OC)C(=O)/C(=C/c1ccc(NC(=O)CN(C)CCCN(C)C)cc1)C2 [D39] | 12300 ± 416 | 75 ± 3.2 | 92.8 ± 1.36 | 87.3 ± 1.25 | 81.4 ± 1.33 | 73.7 ± 1.15 | 55.4 ± 0.678 | 34.7 ± 0.511 | 21.6 ± 0.485 | 45.8 ± 0.9 | 92.6 ± 1.62 | 88.7 ± 1.19 | 81.7 ± 1.16 | 73.3 ± 0.952 | 64.3 ± 0.687 | 40.2 ± 0.528 | 20.5 ± 0.492 | 69.8 ± 0.778 | 39.3 ± 1.1 | 95.3 ± 1.06 | type of inhibition of BChE ([9]; Lineweaver–Burk plots): mixed inhibition; Ki ([9]; secondary plot of Lineweaver–Burk data, read-out: steady-state inhibition constant (Ki), BChE): 61.7 nM; inhibition at 1000 µM ([4]; 10^–3 M, read-out: % β-amyloid plaque inhibition): ≥ 80%; IC50 ([4]; read-out: IC50 on β-amyloid plaque aggregation): 197 ± 7.9 nM; inhibition at 100 µM [7]: 87.2 ± 1.82%; inhibition at 10 µM [7]: 84.8 ± 1.64%; inhibition at 1 µM [7]: 78.6 ± 1.25%; inhibition at 0.1 µM [7]: 60.2 ± 0.956%; inhibition at 0.01 µM [7]: 36.2 ± 0.488%; inhibition at 0.001 µM [7]: 25.6 ± 0.359%; inhibition at 1000 µM [8]: 89.8 ± 1.44%; inhibition at 100 µM [8]: 36.2 ± 0.756%
